The test system of assay [1] is Proteus mirabilis 29906 (Pm) lysate. Description: Example 10: inhibition of formation of TMA from choline by compounds in Proteus mirabilis lysate. It counts as biochemical. The following applies: TABLE 10, 50 μM d9-choline chloride, two hours at 37° C., read-out: TMA Inhibition (IC50, mol/L). As for the experimental part: This example provides an exemplary assay for identifying and characterizing compounds that inhibit the formation of TMA from choline.
Proteus mirabilis 29906 (Pm) strain was grown aerobically overnight in 500 ml of Nutrient Broth media (3 g/L beef extract, 5 g/L Peptone; Difco #234000) at 37° C. with 250 rpm shaking. The biomass was pelleted by centrifugation at 6000×g for 12 minutes at 4° C. The cell pellet was suspended in 240 mL of ice-cold 1× Phosphate Buffered Saline (Ca^2+ and Mg^2+ free). Ninety micrograms of Lysozyme (Sigma #L6876 Lot #SLBG8654V; Sigma-Aldrich Corp., St. Louis, Mo.) was added and incubated with 320 rpm shaking for 30 minutes at 4° C. Lysis was achieved via French press with a 4° C. prechilled 1″ diameter chamber at 1000 psi (high ratio; internal PSI equivalent ˜16000). The lysate was centrifuged at 6,000×g for 12 minutes at 4° C. to pellet extra debris. A protein concentration of the centrifuged lysate supernatant was determined by a BCA Protein Assay Kit (Pierce #23225; Thermo Fisher Scientific Co., Waltham, Mass.) and protein concentration adjusted to 3 mg/ml with 1× Dulbecco's phosphate buffered saline (DPBS). […]
The plates were again agitated on a plate shaker for 1 minute and incubated at 37° C. for two hours. […] The supernatant was removed and analyzed as described below. […]

The subject of assay [2] is human fecal polymicrobial community. Description: Example 11: human fecal polymicrobial incubation with d9-choline, compound screening. The following applies: TABLE 11, fecal slurry, 50 μM d9-choline chloride, 20 hours, doses 250 μM to 0.238 nM, read-out: TMA Inhibition (IC50, mol/L). It counts as cell-based. The protocol:
Human fecal polymicrobial incubation with deuterium labeled choline compound screening method, including cell viability assay. All materials were pre-reduced in an anaerobic chamber for 24 hours before using in the experiments and experimental procedures were performed under anaerobic conditions (chamber purged with 85% nitrogen, 5% hydrogen, 10% carbon dioxide).
Human fecal samples were collected from a healthy volunteer with no chronic illnesses, blood borne diseases or active infections. The volunteer had not received antibiotics within two months prior to donation and provided written informed consent. Samples were diluted to make a 20% (w/v) fecal slurry by resuspension of the feces in a media containing 3% (w/v) tryptic soy broth (BBL #211825), 1% (w/v) trehalose (Sigma #T9631), pH 7.3. The fecal slurry was homogenized and filtered by hand using a stomacher bag with an integrated 170 μm membrane. DMSO (5% (w/v)) was added to the filtered slurry and aliquots were stored in cryogenic vials at −80° C. until use. […] After 20 hours, an aliquot of the fecal polymicrobial community was analyzed for viability using PrestoBlue cell viability reagent (Thermo Fisher Scientific, USA) as described below. […] The products were determined by LC/MS/MS and IC50 values were calculated as described previously for detection and analysis of TMA and d9-TMA in EXAMPLE 9. […]

As to `C[S+](C)(=O)CCO` [(2-hydroxyethyl) dimethylsulfoxonium chloride], the IC50 in assay [1] was 7.74 nM; in assay [2], 97.3 nM.

These data come from US11331280B2, “Methods for inhibiting conversion of choline to trimethylamine (TMA)” (The Procter & Gamble Company, priority 2018, dated 2022).
